Broadly, the IC50 is the midpoint of a concentration-inhibition curve.

Where two headings read alike, the source gives them in different places.

The subject of the assay is cell line HS695T. Put plainly: Cell viability via Trypan blue staining in cell culture experiments. The format is cell-based. The settings on record: Homo sapiens, Hs 695T. As for the experimental part:
Cell lines and pharmacological characterization. Cell line HS695T (CLS) was cultured in DMEM (4 mM L-glutamine, 4.5 g/l glucose, Invitrogen) with 10% fetal bovine serum (Biochrom) and maintained at 37° C. under 5% CO2 atmosphere. The cells were dispensed as triplicates into a 6-well-plate-formate with a concentration of 5×10^5 per well 24 hours prior to drug treatment. Afterwards medium was replaced with a final drug concentration range of 2.5 nM to 8 μM by 3.16-fold dilutions (eight-dose response) of Sunitinib and PI103 as single treatment HS695T for 72 and 96 hours. […] Compounds (Selleckchem) were diluted in DMSO. The final DMSO concentration for the experiments was under 0.4%. Cell viability was determined via Trypan blue staining in duplicates for each well. 100 μl of cells were incubated with an equal volume of 0.5% Trypan blue for 2-5 minutes (in 0.9% sodium chloride) and counted using a Neubauer haemocytometer chamber and a light microscope. The means of independent cell counts were taken for analysis.
Predicted growth inhibition curves were compared to measured growth inhibition curves as previously described.

Consider `Oc1cccc(-c2nc(N3CCOCC3)c3oc4ncccc4c3n2)c1` [PI103], for which the IC50 reads like this: (read-out: IC50 values determined by cell culture experiments) 830 nM; (read-out: sensitivity classification according to IC50 determined by cell culture experiments) less than 2000 nM.
In the case of `CCN(CC)CCNC(=O)c1c(C)[nH]c(/C=C2\C(=O)Nc3ccc(F)cc32)c1C` [Sunitinib], the IC50 was more than 2000 nM (HS695T, read-out: sensitivity classification according to IC50 determined by cell culture experiments); 4700 nM (HS695T, single treatment, 2.5 nM to 8 μM, 72 and 96 hours, Trypan blue cell counts, read-out: IC50 values determined by cell culture experiments).

Source of the values: US20160259918A1, “Computational Approach for Identifying a Combination of Two Drugs” (ALACRIS THERANOSTICS GMBH, priority 2013, published 2016).
